Assay results: US20210196720A1 (UROVANT SCIENCES GMBH, priority 2018, published 2021)
Values joined by “and” are separate entries in the source; they are usually repeats but may differ in a detail not shown here. Equal entries are not always repeated. Where two headings read alike, the source gives them in different places.

Assay: Single rising oral dose Phase 1 PK, healthy adults (young males unless stated)
Assay type: in vivo, human
Settings: for AUC(0-inf) / Cmax / AUC(0-t) / half-life: human, plasma, oral; for AUC(0-t): read-out: AUC0-24
Experimental: The steady state AUC geometric mean accumulation ratios were ˜2 in young male subjects and ˜2.8 in elderly subjects (male and female).
All subjects were healthy adults. […] Systemic exposures were greater than dose proportional up to 600 mg.
Although exposures were similar in middle-aged males when compared to young males, plasma concentrations were higher in elderly compared to middle-aged and young subjects. […] Furthermore, the steady state AUC geometric mean accumulation ratios were ˜2 in young males and ˜2.8 in the elderly.

[1] = both sexes, 50 mg, single 50 mg, elderly male and female
[2] = male, 10 mg, single 10 mg, Japanese
[3] = male, 50 mg, single 50 mg, Japanese, fasted
[4] = male, 50 mg, single 50 mg, fasted
[5] = male, 100 mg, single 100 mg, Japanese
[6] = male, 200 mg, single 200 mg, Japanese
[7] = male, 300 mg, single 300 mg, Japanese

O=C(Nc1ccc(C[C@@H]2CC[C@H]([C@H](O)c3ccccc3)N2)cc1)[C@@H]1CCc2nccc(=O)n21 [Vibegron, (6S)-N-[4-[[(2S,5R)-5-[(R)-hydroxy(phenyl)methyl]pyrrolidin-2-yl]methyl]phenyl]-4-oxo-7,8-dihydro-6H-pyrrolo[1,2-a]pyrimidine-6-carboxamide] gave an AUC(0-inf) [1] of 951 ± 300 ng·h/mL, a Cmax [1] of 50.2 ± 23.6 ng/mL and an AUC(0-t) [1] of 314 ± 119 ng·h/mL. It also gave a half-life (both sexes, 50 mg, single 50 mg, elderly male and female, read-out: t1/2 (converted)) of 92 h, a Cmax (male, 2 mg, single 2 mg) of 0.28 ± 0.02 ng/mL and an AUC(0-t) (male, 2 mg, single 2 mg) of 0.8 ± 0.33 ng·h/mL. The Cmax (male, 5 mg, single 5 mg) was 0.79 ± 0.3 ng/mL, the AUC(0-t) (male, 5 mg, single 5 mg) was 8.31 ± 4.8 ng·h/mL and the AUC(0-inf) (male, 10 mg, single 10 mg) was 70.7 ± 34.9 ng·h/mL. For the same compound, the Cmax (male, 10 mg, single 10 mg) was 4.76 ± 4.58 ng/mL, the AUC(0-inf) [2] was 98.7 ± 27.3 ng·h/mL and the Cmax [2] was 3.34 ± 1.97 ng/mL. The AUC(0-t) [2] was 31 ± 9.33 ng·h/mL, the half-life (male, 10 mg, single 10 mg, Japanese, read-out: t1/2 (converted)) was 57.6 ± 39 h and the AUC(0-t) (male, 10 mg, single 10 mg) was 30 ± 12.6 ng·h/mL. For the same compound, the half-life (male, 10 mg, single 10 mg, read-out: t1/2 (converted)) was 43.2 ± 13 h, the AUC(0-inf) (male, 20 mg, single 20 mg) was 121 ± 48.9 ng·h/mL and the Cmax (male, 20 mg, single 20 mg) was 5.25 ± 4.25 ng/mL. The AUC(0-t) (male, 20 mg, single 20 mg) was 40 ± 21.1 ng·h/mL, the half-life (male, 20 mg, single 20 mg, read-out: t1/2 (converted)) was 64.2 ± 12.6 h and the AUC(0-inf) [3] was 885 ± 241 ng·h/mL. The Cmax [3] was 62.2 ± 20.4 ng/mL, the AUC(0-t) [3] was 385 ± 136 ng·h/mL and the half-life (male, 50 mg, single 50 mg, Japanese, read-out: t1/2 (converted)) was 64.4 ± 8.7 h. For the same compound, the AUC(0-inf) [4] was 551 ± 262 ng·h/mL, the Cmax [4] was 31.7 ± 35 ng/mL and the AUC(0-t) [4] was 219 ± 123 ng·h/mL. For the same compound, the half-life (male, 50 mg, single 50 mg, read-out: t1/2 (converted)) was 52 h, the AUC(0-inf) (male, 100 mg, single 100 mg) was 1890 ± 698 ng·h/mL and the Cmax (male, 100 mg, single 100 mg) was 142 ± 108 ng/mL. For the same compound, the AUC(0-inf) [5] was 1770 ± 418 ng·h/mL, the Cmax [5] was 190 ± 123 ng/mL and the AUC(0-t) [5] was 920 ± 300 ng·h/mL. It also gave a half-life (male, 100 mg, single 100 mg, Japanese, read-out: t1/2 (converted)) of 57.6 ± 12 h, an AUC(0-t) (male, 100 mg, single 100 mg) of 845 ± 401 ng·h/mL and a half-life (male, 100 mg, single 100 mg, read-out: t1/2 (converted)) of 72.8 ± 10.8 h. For the same compound, the AUC(0-inf) (male, 150 mg, single 150 mg) was 2270 ± 911 ng·h/mL, the Cmax (male, 150 mg, single 150 mg) was 195 ± 185 ng/mL and the AUC(0-t) (male, 150 mg, single 150 mg) was 1050 ± 551 ng·h/mL. It also gave a half-life (male, 150 mg, single 150 mg, read-out: t1/2 (converted)) of 60.5 ± 10.5 h, an AUC(0-inf) (male, 200 mg, single 200 mg) of 3630 ± 1110 ng·h/mL and a Cmax (male, 200 mg, single 200 mg) of 274 ± 138 ng/mL. For the same compound, the AUC(0-inf) [6] was 5200 ± 791 ng·h/mL, the Cmax [6] was 516 ± 200 ng/mL and the AUC(0-t) [6] was 3090 ± 569 ng·h/mL. The half-life (male, 200 mg, single 200 mg, Japanese, read-out: t1/2 (converted)) was 58.4 ± 9 h, the AUC(0-t) (male, 200 mg, single 200 mg) was 1740 ± 748 ng·h/mL and the half-life (male, 200 mg, single 200 mg, read-out: t1/2 (converted)) was 75.3 ± 9.1 h. For the same compound, the AUC(0-inf) (male, 300 mg, single 300 mg) was 7380 ± 1410 ng·h/mL, the Cmax (male, 300 mg, single 300 mg) was 618 ± 231 ng/mL and the AUC(0-inf) [7] was 6270 ± 1570 ng·h/mL. For the same compound, the Cmax [7] was 733 ± 210 ng/mL, the AUC(0-t) [7] was 4050 ± 1240 ng·h/mL and the half-life (male, 300 mg, single 300 mg, Japanese, read-out: t1/2 (converted)) was 59.7 ± 9.2 h. For the same compound, the AUC(0-t) (male, 300 mg, single 300 mg) was 4430 ± 996 ng·h/mL, the half-life (male, 300 mg, single 300 mg, read-out: t1/2 (converted)) was 63.4 ± 3 h and the AUC(0-inf) (male, 450 mg, single 450 mg) was 9160 ± 1850 ng·h/mL. The Cmax (male, 450 mg, single 450 mg) was 645 ± 165 ng/mL, the AUC(0-t) (male, 450 mg, single 450 mg) was 5510 ± 1440 ng·h/mL and the half-life (male, 450 mg, single 450 mg, read-out: t1/2 (converted)) was 60 ± 9.4 h. For the same compound, the AUC(0-inf) (male, 600 mg, single 600 mg) was 15500 ± 3450 ng·h/mL, the Cmax (male, 600 mg, single 600 mg) was 1330 ± 529 ng/mL and the AUC(0-t) (male, 600 mg, single 600 mg) was 10900 ± 2770 ng·h/mL. It also gave a half-life (male, 600 mg, single 600 mg, read-out: t1/2 (converted)) of 60.5 ± 5.2 h, a half-life (male, 10 to 600 mg, healthy young males, read-out: terminal elimination t1/2) of 43 to 75 h and a half-life (male, Japanese subjects, read-out: harmonic mean apparent terminal t1/2) of 58 to 71 h. For the same compound, the “AUC0-inf higher in elderly than young males” value (single 50 mg) was about 70%, the “Cmax higher in elderly than young males” value (single 50 mg) was 60% and the t1/2 (single 50 mg) was 52 h and 52.0 ± 7.8 h. For the same compound, the t1/2 (single 50 mg, elderly male and female) was 92 h and 92.1 ± 15.9 h and the “exposure increase, Japanese vs non-Japanese young males” value (single dose) was under 2 fold.
